Laboratory results: patent publication US6828318B2 (priority 2000, dated 2004)
Structures can show the parent of a compound that is named as a salt.

How the values were obtained:
[1] = target: PCP site of the NMDA receptor; experiment: NMDA receptor binding: displacement of [3H]-MK-801 from rat cortical homogenates; details: rat cortical membranes, 5 nM [3H]-MK-801, 10 μM glutamate, 10 μM glycine; read-out: IC50, potency to displace [3H]-MK-801 from rat cortical homogenates
From the text: The NMDA receptor contains several distinct binding domains that can regulate opening of the cationic channel. The phencyclidine (PCP) site of the NMDA receptor can be radiolabeled with [^3H]-(+)-5-methyl-10,11-dihydro-5H-dibenzo[a,d]cyclohepten-5,10-imine hydrogen maleate, [^3H-MK-801]. The following describes the procedure for determining the affinity of compounds for the PCP site in rat cortical membranes.
Frozen rat cortex, homogenized in 10 volumes of ice-cold 0.32-M sucrose is centrifuged at 1,000 g for 12 min and the supernatant stored on ice whilst the pellet is resuspended, rehomogenized and recentrifuged twice more. The three final supernatants are pooled and centrifuged at 30,000 g for 40 min at 4° C. to yield P2 pellets. These are resuspended in ice-cold distilled water, and centrifuged at 30,000 g for 50 min at 4° C. Following three further washes in distilled water, the P2 pellets are stored at −20° C. for at least 18 h. On the day of the assay, membrane pellets are thawed at room temperature, resuspended in ice-cold distilled water and centrifuged at 30,000 g for 20 min. The pellets are resuspended in 50-mM tris-HCl (pH:7.4) and recentrifuged twice more before being resuspended in tris-HCl for immediate use in the assay. Binding assays are performed at equilibrium in a total volume of 200 μL, containing [^3H]-MK-801 (5-nM final conc.), 10-μM glutamate, 10-μM glycine, 160 μL of membrane preparation and additional drugs where appropriate. Non-specific binding is determined using MK-801 (10-μM). The assay is incubated for 120 min at room temperature. The incubation is terminated by rapid filtration through Whatman GF/B filters (pre-soaked in 0.1% PEI solution). The assay tubes and filters are washed five times with 1 mL of ice-cold assay buffer. The filters are placed in poly-Q mini vials with approximately 5 mL of scintillation fluid. The vials are then shaken and left for at least 8 h before being counted on a liquid scintillation counter. To determine the free ligand concentration 3 aliquots (20 μL) of the [^3H]-MK-801 working solution are also counted. Concentration response data for drugs is analysed using a 4 parameter equation fitted by non-linear regression. This yields the half maximally effective drug concentration (IC50) and Hill coefficient.

[2] = system: male Sprague Dawley rats; experiment: Assessment of analgesia: sub-plantar formalin injection into the rat hind paw; assay type: in vivo; details: rat formalin test, second phase t=5 to t=30 min, drug 20 min before formalin
Description: Analgesia testing was performed in male Sprague Dawley rats weighing 200-250 g. Drugs were administered 20 minutes prior to a sub-plantar injection of formalin into the right hind paw. The characteristic nociceptive behavioural responses elicited by this injection were rated on a scale from “0”=no effect through to “3”=effect of maximal intensity. As with side effect ratings, all observations were made blind to treatment condition. Ratings of nociception related behaviours were made in two time periods, one from the time of injection for a further five minutes (t=0 to t=5 min), and a second from t=5 min to t=30 min. The response to formalin injection in this model is biphasic, the first phase occurring during the first five minutes consists of a primary inflammation related response. The second phase, occurring over the subsequent 30 minutes is a delayed phase in which the phenomenon of “wind up” or neurally mediated hyperalgesia, is thought to occur. It is the second phase of response that has relevance to sciatica, diabetic neuropathy and other neuropathic chronic pain states. Responses to test compounds were assessed during this second phase from t=5 min to t=30 min. Data were analysed by means of Median tests followed by post hoc Bonferroni corrected Mann-Whitney U-tests.

[3] = system: male Sprague Dawley rats; experiment: Assessment of side-effect liability (PCP syndrome), behavioural rating; assay type: in vivo, rat
Description: Side effect liability was assessed by utilising a standardised […] rating of behaviours recognised to be elicited by prototypical psychotomimetic NMDA receptor channel blockers such as phencyclidine and aptiganel (Cerestat™), similar to those reported by Martin et al., Life Sci 1979 24:1699-1703. Groups of eight male Sprague Dawley rats weighing 250-280 g. were placed in Plexiglass chambers and administered test compounds. After 20 minutes the percentage of rats in each group showing the behaviours noted in Table 2 was rated.
Ratings were plotted on ethograms to illustrate the profile of effect of each test compound.

| Structure (SMILES) | melting point | IC50 [1] | Minimum effective dose on nociception related behaviours [2] | other results |
| --- | --- | --- | --- | --- |
| NCCC1(c2ccccc2)C2CC3CC(C2)CC1C3 (centres unmarked) (as salt: hydrochloride) [Example 1, 2-[2-(2-Phenyl)adamantyl]ethylamine hydrochloride] | 278 to 281 °C (dec.) | – | – | – |
| NCCC1(c2cccs2)C2CC3CC(C2)CC1C3 (centres unmarked) [Example 2, 2-[2-[2-(2-Thienyl)]adamantyl]ethylamine hydrochloride] | – | 2.7 ± 0.54 µM | – | – |
| Cc1ccc(C2(CC(C)N)C3CC4CC(C3)CC2C4)cc1 (centres unmarked) (as salt: hydrochloride) | 344 to 346 °C | – | – | – |
| NCCC1(c2ccccc2)C2CC3CC(C2)CC1C3 (centres unmarked) [Example 1, 2-[2-(2-Phenyl)adamantyl]ethylamine hydrochloride] | – | 1.09 ± 0.4 µM | 20 mg/kg | Elicitation of PCP syndrome (PCP related behaviours) ([3]; rats, intraperitoneal, twenty minutes prior to test, groups of n=8, hydrochloride): no tendency to elicit “PCP syndrome.” |
| NCCC1(Cc2ccccc2)C2CC3CC(C2)CC1C3 (centres unmarked) (as salt: hydrochloride) | 195.8 to 196.8 °C | – | – | – |
| NCCC1(c2cccs2)C2CC3CC(C2)CC1C3 (centres unmarked) (as salt: hydrochloride) [Example 2, 2-[2-[2-(2-Thienyl)]adamantyl]ethylamine hydrochloride] | 250.6 to 251.9 °C | – | – | – |
| CNC1(c2ccccc2Cl)CCCCC1=O (centres unmarked) [Ketamine, reference compound] | – | 6.51 ± 4.54 µM | 20 mg/kg | Elicitation of PCP syndrome (PCP related behaviours) ([3]; rats, intraperitoneal, twenty minutes prior to test, groups of n=8): produces “PCP syndrome” |
| CC12CC3CC(C)(C1)CC(N)(C3)C2 [Memantine, reference compound] | – | 6.5 ± 0.94 µM | 10 mg/kg | Elicitation of PCP syndrome (PCP related behaviours) ([3]; rat, in vivo, ip): elicits “PCP syndrome” |
